Measured values taken from article PMC6695598, “The Development of Tetrazole Derivatives as Protein Arginine Methyltransferase I (PRMT I) Inhibitors” (International Journal of Molecular Sciences, 2019).
“Also recorded” adds a separate entry of the source.

How the values were obtained:
[1] = WST-8/CCK8 cell viability assay; type: cell-based; conditions: human, MDA-MB-231 breast cancer cells, read-out: IC50 against MDA-MB-231 (cytotoxicity)
Experimental: The MDA-MB-231 cell line used in this study was obtained from the American Type Culture Collection (ATCC, Rockville, MD, USA), and was grown in dulbecco’s modified eagle medium (DMEM, Gibco, Thermo Fisher Scientific, Waltham, MA, USA) supplemented with 10% fetal bovine serum (FBS) (Gibco). The cells were incubated at 37 °C and 5% CO2.
The cytotoxicity was determined by the CCK8 assay. Briefly, MDA-MB-231 cells (5 × 10^3 cells/well) were seeded in 96-well plates in DMEM containing 10% FBS and grew for 24 h. The exponentially growing cells were incubated with various concentrations of compounds for 48h/72h in serum free DMEM at 37 °C (5% CO2, 95% humidity). CCK8 reagent (10 μL) was added to each well and incubated for further 2 h, and then the absorbance was analyzed in a multiwell-plate reader (BioTek ELx800) at 450 nm.

PRMT5 = PRMT5 (Homo sapiens, UniProt O14744); test: radioactive methylation assay, PRMT5 selectivity; type: biochemical
Sequence of PRMT5 (O14744 whole entry, species assumed): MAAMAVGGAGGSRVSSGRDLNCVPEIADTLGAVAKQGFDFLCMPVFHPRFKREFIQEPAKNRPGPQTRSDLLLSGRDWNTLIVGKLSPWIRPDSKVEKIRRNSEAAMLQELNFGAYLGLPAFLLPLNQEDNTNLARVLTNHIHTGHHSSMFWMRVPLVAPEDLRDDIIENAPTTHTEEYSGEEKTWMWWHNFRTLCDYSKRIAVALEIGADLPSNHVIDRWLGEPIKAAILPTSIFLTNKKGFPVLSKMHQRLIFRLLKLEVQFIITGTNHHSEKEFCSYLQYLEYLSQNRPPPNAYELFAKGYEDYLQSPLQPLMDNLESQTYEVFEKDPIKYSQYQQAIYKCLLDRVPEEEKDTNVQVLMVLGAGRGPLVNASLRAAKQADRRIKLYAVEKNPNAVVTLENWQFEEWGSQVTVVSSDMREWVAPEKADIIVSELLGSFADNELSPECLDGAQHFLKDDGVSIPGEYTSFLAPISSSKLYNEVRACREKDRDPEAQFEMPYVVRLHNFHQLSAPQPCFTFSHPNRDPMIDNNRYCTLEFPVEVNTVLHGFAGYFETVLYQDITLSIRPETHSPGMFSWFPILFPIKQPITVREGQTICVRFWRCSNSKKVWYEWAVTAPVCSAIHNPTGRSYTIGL
Sequence of PRMT5 (Q9BQA1 whole entry partner, species assumed): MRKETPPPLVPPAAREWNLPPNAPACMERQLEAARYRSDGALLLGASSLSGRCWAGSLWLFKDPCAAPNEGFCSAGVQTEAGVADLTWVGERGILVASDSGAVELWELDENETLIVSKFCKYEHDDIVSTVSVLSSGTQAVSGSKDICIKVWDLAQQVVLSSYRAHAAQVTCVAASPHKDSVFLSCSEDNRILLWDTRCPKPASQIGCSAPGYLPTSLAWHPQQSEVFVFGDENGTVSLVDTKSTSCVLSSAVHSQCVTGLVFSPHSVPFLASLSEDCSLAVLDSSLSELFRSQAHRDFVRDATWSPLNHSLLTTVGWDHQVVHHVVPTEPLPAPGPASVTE
Experimental: (§1) The enzyme inhibitory activities were measured by the radioisotope assay in ShangHai Chempartner Co. Ltd. according to the standard protocol. The similar procedure was recently performed in the publication The radioactive methylation assay was performed in 1× assay buffer (modified Tris buffer) system containing enzyme (PRMT1/5), peptide and [^3H]-SAM solution and compounds on the assay plate. […] Afterwards, the reaction was stopped with addition of 5 μL cold SAM solution to per well. Then, 25 μL of volume per well was transferred to Flashplate from assay plate and incubated for 1 h minimum at room temperature. Finally, the Flashplate was washed with dH2O and 0.1% Tween-20 three times and then reading plate in Mi crobeta using program ^3H-Flashplate. The data was analyzed in GraphPad Prism 5 to obtain IC50 values.

MDA-MB-231 cells = test: Western blotting of PRMT1 and Wnt pathway markers; type: cell-based
Experimental: MDA-MB-231 cells were maintained on 6-well plates at the appropriate density. […] Total cell lysates were separated by SDS-PAGE and transferred onto nitrocellulose membranes. The blots were blocked with 5% nonfat milk for 30 min and the target proteins were probed with appropriate specific antibody overnight at 4 °C, respectively. The blots were washed with TBST for three times and then incubated with anti-rabbit secondary antibody (HRP conjugated) for 1 h. After another three washes, bands were detected in a ChemiScope3400 imaging system using ECL substrate (Millipore, Burlington, MS, USA). Primary antibodies used were as follows: anti-PRMT1 (Cell Signaling Technology no.2449, Danvers, MA, USA), anti-ADMA (Cell Signaling Technology no.13522), anti-SDMA (Cell Signaling Technology no.13222), anti-GAPDH (Cell Signaling Technology no. 5174), anti-H4R3me2a Abcam, ab9231), Wnt3a (Cell Signaling Technology no. 2721s), anti-DDAH (Abcam, ab9231, Cambridge, UK), Wnt5a/b (Cell Signaling Technology no. 2530s), β-catenin (Cell Signaling Technology no. 8480s), MMP9 (Cell Signaling Technology no.1366s). The results were obtained from multiple membranes. No significant differences were observed among loading controls. Therefore, we presented the representative loading control blot image in the figure.

PRMT1 [2] = biological target: T1, PRMT1 (Homo sapiens, UniProt Q99873); test: Mechanism of Action (MOA) study, competition with SAM and peptide on PRMT1; type: biochemical; conditions: IC50 at varied SAM (0.5-60× Km) or peptide (0.5-100× Km) concentrations
T1 sequence (Q99873 whole entry): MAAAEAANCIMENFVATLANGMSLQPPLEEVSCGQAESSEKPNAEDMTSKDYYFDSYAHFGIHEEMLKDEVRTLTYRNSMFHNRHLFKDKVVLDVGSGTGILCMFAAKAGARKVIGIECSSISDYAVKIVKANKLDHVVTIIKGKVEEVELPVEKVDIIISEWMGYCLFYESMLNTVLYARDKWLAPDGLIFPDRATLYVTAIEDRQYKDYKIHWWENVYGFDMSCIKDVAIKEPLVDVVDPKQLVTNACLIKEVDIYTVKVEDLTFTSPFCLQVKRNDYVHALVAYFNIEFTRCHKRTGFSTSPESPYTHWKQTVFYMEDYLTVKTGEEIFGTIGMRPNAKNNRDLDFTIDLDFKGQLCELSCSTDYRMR
Description: Both PRMT1 and PRMT6 are Type I PRMTs, and their structures share the high degree similarity. […] Based on the crystal structure, it can be predicated that MS023 should be a competitive inhibitor against the peptide. […] There are potential explanations for the current contradictory results. First, the main binding effects of the substrate were from the outside regions of arginine-binding site.
The method is consistent with the procedure described above.

PRMT1 [3] = biological target: T1, PRMT1; test: radioactive PRMT1 methylation inhibition assay ([3H]-SAM, biotinylated histone H4 peptide); type: biochemical
Experimental: A series of 1,5-substituded tetrazole derivatives were synthesized to investigate the structure-activity relationship (SAR) of PRMT1 inhibitors (Table 1). […] The chemical modification of these compounds is mainly focused on the substituted benzene ring. The initial screening of these compounds was carried out using the radioactive PRMT1 methylation inhibition assay, which measured the amount of methyl groups that transferred from [^3H]-SAM to a biotinylated histone H4 peptide (ac- […](Biotin)). […] In the second step, the Group II compounds were designed and synthesized by extending the ethylenediamine side chain to propylenediamine.
as §1

PRMT6 = test system: PRMT6; parameters: method as in PMID 26598975; conditions: cited from earlier work
[4] = MDA-MB-231, 48 h, top concentration 200 μM

IC50 (PRMT5) [µM] | IC50 (PRMT1 [3]) [µM] | inhibition at 10 µM (PRMT1 [3]; 10 μM compound, initial screening) [%] | SMILES | IC50 at 48 h ([1]; 48 h) [µM] | IC50 at 72 h ([1]; 72 h) [µM] | global level of ADMA (MDA-MB-231 cells; [4]) | global level of H4R3me2as (MDA-MB-231 cells; [4]) | global level of SDMA (MDA-MB-231 cells; [4]) | level of DDAH (MDA-MB-231 cells; [4]) | level of Wnt3a (MDA-MB-231 cells; [4]) | level of Wnt5a (MDA-MB-231 cells; [4]) | level of β-catenin (MDA-MB-231 cells; [4]) | cell damage during the western blotting experiment (MDA-MB-231 cells; MDA-MB-231, top concentration 200 μM) | mode of inhibition with respect to SAM and peptide substrate (PRMT1 [2]) | mode of inhibition with respect to SAM and peptide substrate (PRMT6)
> 100 | 3.5 | > 47 | CNCCN(C)Cc1nnnn1-c1ccc(OC(C)C)cc1.Cl [9a, N,N’-Dimethyl-N’-(1-(4-isopropoxyphenyl)-1H-tetrazol-5-yl-methyl)ethylenediamine hydrochloride] | > 500 | 541 ± 6.5 | significantly decreased in a concentration-dependent manner; also recorded: significantly decreased in concentration-dependent manners | decreased the global level of H4R3me2as in a concentration-dependent manner; also recorded: significantly decreased in concentration-dependent manners | not significantly affected; also recorded: not significantly changed | significantly decreased in a concentration-dependent manner; also recorded: significantly decreased in concentration-dependent manners | significantly decreased in concentration-dependent manners | did not change significantly; also recorded: not changed | significantly decreased in concentration-dependent manners | no obvious cell damage was observed | noncompetitive inhibitor for either the cofactor SAM or peptide substrate; also recorded: non-competitive pattern with respect to either SAM or substrate arginine; also recorded: did not compete with either SAM or peptides | 
 |  |  | CC(C)Oc1ccc(-c2c[nH]cc2CN(C)CCN)cc1 [MS023] |  |  |  |  |  |  |  |  |  |  |  | noncompetitive with either SAM or peptide substrate
